{"source": "patent US20240245787A1", "about": "“E3 LIGASE BINDERS AND USES THEREOF” (President and Fellows of Harvard College, priority 2021, published 2024)", "key": {"[1]": {"target": "CRBN/DDB1 in the presence of BD2 domain of BRD4 (Homo sapiens, UniProt O60885+Q96SW2)", "sequence (Q96SW2 whole entry, looked up, other chains not shown, the tested form may be a part)": "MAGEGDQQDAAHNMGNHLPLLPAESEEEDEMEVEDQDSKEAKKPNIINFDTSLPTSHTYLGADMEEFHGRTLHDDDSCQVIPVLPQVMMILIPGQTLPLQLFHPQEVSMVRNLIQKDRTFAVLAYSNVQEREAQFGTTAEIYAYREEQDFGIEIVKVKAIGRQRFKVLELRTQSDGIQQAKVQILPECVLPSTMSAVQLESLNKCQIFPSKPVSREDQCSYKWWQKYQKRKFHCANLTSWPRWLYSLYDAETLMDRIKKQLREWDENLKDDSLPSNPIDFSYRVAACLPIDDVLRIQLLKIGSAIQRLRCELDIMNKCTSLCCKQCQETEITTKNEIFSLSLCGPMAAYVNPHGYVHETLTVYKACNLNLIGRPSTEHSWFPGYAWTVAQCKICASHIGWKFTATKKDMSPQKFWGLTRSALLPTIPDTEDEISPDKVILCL", "assay": "biochemical"}, "[2]": {"target": "CRBN/DDB1 in the presence of BD1 domain of BRD4 (Homo sapiens, UniProt O60885+Q96SW2)", "assay": "biochemical"}, "IKZF1 [3]": {"tested_on": "IKZF1", "assay": "Global quantitative proteomics of MM.1S cells", "type": "cell-based, human (Homo sapiens)", "conditions": "10 μM, 10 h", "experimental": "Global proteomics samples were prepared in biological triplicate for each condition. 1.5×10^6 HEK293T or MM.1S cells were seeded in 6-well plates and incubated at 37° C., 5% CO2 for 30 min. Small molecules of interested were then added, and cells were incubated at 37° C., 5% CO2 for the indicated time. […] After protein quantification by BCA protein assay, the lysates were diluted to 1 mg/mL with the lysis buffer. The diluted lysates (100 μL) were reduced by addition of dithiothreitol (20 mM) at 24° C. for 30 min then alkylated by addition of iodoacetamide (40 mM) and incubation in the dark at 24° C. for 30 min.\nS-Trap buffer (90% methanol, 0.1 M TEAB, pH 7.1, 900 μL) was then added. Each sample was transferred to a S-Trap micro column. Using a vacuum manifold, the columns were washed with S-Trap buffer (3×150 μL). […] The digested peptides were eluted by sequential addition of 50 mM TEAB pH 8.0 (40 μL), ddH2O (40 μL) and 0.2% formic acid, 50% acetonitrile/water (35 μL), with each elution collected by centrifugation (4,000× g, 24° C., 1 min) in a clean Eppendorf tube. The eluted samples were concentrated to dryness in a vacufuge and resuspended in 45 or 80 μL ddH2O for 9 or 16 samples, respectively. For each resuspended sample, 5 μL was taken for labeling with TMT reagent (2 μL) at 24° C. for 1 h such that the combined total protein was 100 μg. […] The TMT-labeled samples were combined and dried in a vacufuge. The dried sample was resuspended in 300 μL 0.1% trifluoroacetic acid (TFA) and fractionated to 20 fractions using a Pierce high pH reversed-phase peptide fractionation kit. […] The first fraction (4% acetonitrile/0.1% TEA) was excluded from LC-MS/MS analysis. The other fractions were concentrated to dryness and each sample was resuspended in 20 μL of 0.1% formic acid prior to LC-MS/MS analysis. […]\nAnalysis was performed in Thermo Scientific Proteome Discoverer version 2.4.1.15. […] The TMT reporter ions were quantified using the Reporter Ions Quantifier node and normalized such that the summed peptide intensity per channel was equal. […]"}, "FIG. 22C": {"assay": "FIG. 22C", "from_the_text": "Table printed on a drawing sheet, FIG. 22C\nFirst reader's note: Per the description this is an in vitro permeability assay in Caco-2 cells; Boc-FcQ and Boc-FcN are Boc-protected dipeptide cyclic imides (cyclimids)."}, "MM.1S cells": {"tested_on": "MM.1S cells", "assay": "Cell viability (MTT) assay", "type": "cell-based", "conditions": "Homo sapiens, MM1.S, 120 h, 5 d, read-out: IC50 (anti-proliferative effect)", "method": "2.0×10^4 MM.1S cells were seeded in each well of a 96-well plate containing 100 μL RPMI160 media supplemented with 10% FBS and 1× penicillin-streptomycin. The compound of interest was added to each well to a final concentration of 10 nM-100 μM from 100× stock solutions in 4% DMSO/PBS (1 μL). Samples were incubated at 37° C., 5% CO2 for 5 days. Each well was treated with 3-(4,5-Dimethylthiazol-2-yl)-2,5-diphenyltetrazolium (MTT, 4 mg/mL, 10 μL), and the treated plate was incubated at 37° C., 5% CO2 for 3 h. The formazan crystals were solubilized by the addition of 100 μL of 10% SDS, 0.01 M HCl per well, and the plate was allowed to incubate at 37° C. overnight. The absorbance at 570 nm was measured to quantify the formazan generated in each well. The blank was defined by wells containing media and MTT reagent without any cells. For each treatment well, the cell viability was calculated by subtracting the blank value and normalizing to the average absorbance of the vehicle control wells (cells treated with 4% DMSO/PBS)."}, "BRD4 with FLAG-CRBN [4]": {"target": "T1, BRD4 with FLAG-CRBN (Homo sapiens, UniProt O60885+Q96SW2)", "assay": "In vitro FLAG-tag co-immunoprecipitation in HEK-CRBN lysates", "type": "binding", "conditions": "1 μM, 2 h", "experimental": "For in vitro FLAG-tag co-immunoprecipitation, 5.0×10^6 HEK-CRBN cells were collected by centrifugation, lysed in 1× protease/phosphatase inhibitor/1× non-denaturing lysis buffer (400 μL), and cleared by centrifugation (21,000×g, 4° C., 10 min). The soluble portion of the lysate was collected and 200 μL of lysate was incubated with compound of interest at 4° C. for 2 h. […] The magnetic beads were washed with 1× non-denaturing lysis buffer (5×500 μL). The enriched proteins were eluted by the addition of 40 μL of 2× SDS-PAGE loading buffer and heated at 95° C. for 5 min prior to Western blot analysis."}, "CRL4^CRBN complex": {"target": "CRL4^CRBN complex (Homo sapiens, UniProt Q96SW2)", "assay": "In vitro ubiquitylation of C-terminally tagged proteins", "type": "biochemical", "conditions": "CRL4^CRBN complex isolated from HEK-CRBN cells, 30° C., 90 min", "experimental": "5.0×10^6 HEK-CRBN cells were collected per pellet, flash frozen with liquid nitrogen, and stored at −80° C. until use. Approximately 1 pellet per 1.5 samples was thawed on ice, and each pellet was resuspended in 1× protease inhibitor cocktail/Pierce IP lysis buffer (250 μL). Lysates were incubated on ice for 10 min, then were clarified by centrifugation (21,000×g, 4° C., 10 min). The soluble portions of the lysates were collected, with 1 mL lysate per tube, and 150 μL of TBS-washed anti-FLAG M2 beads were added. Samples were incubated at 4° C. on a roller for 1 h. Using a magnetic tube rack, the beads were collected and washed 3× with 1 mL TBS. Each sample was then eluted with by adding 100 μL of 100 ng/μL 3× FLAG peptide/TBS and incubating at 4° C. on a roller for 1 h. The eluent was collected. […] Ubiquitylation mastermixes were prepared at 2× with and without E1 and E2 enzymes. Final concentrations (1×) of the mastermix components were 0.2 μM UBE1, 2 μM UbcH5a, 1 mM UbcH5c, 400 μg/mL KO ubiquitin, 1 μM ubiquitin aldehyde, 1× Mg-ATP, 1× E3 ligase buffer, 10 μM MG132, 100 nM MG101. […] Reactions were incubated at 30° C. for 90 min then were stopped by the addition of 6.25 μL of 5× SDS-PAGE loading buffer. Samples were heated at 95° C. for 5 min prior to analysis by SDS-PAGE and Western blotting."}, "BRD4": {"target": "BRD4 (Homo sapiens, UniProt O60885)"}, "[5]": {"tested_on": "GST-BRD4 and His-CRBN/DDB1", "assay": "AlphaScreen for ternary complex formation", "type": "binding", "conditions": "recombinant GST-BRD4 and His-CRBN/DDB1", "method": "AlphaScreen buffer (3× stock solution: 150 mM HEPES pH 7.4, 600 mM NaCl, 0.3% w/v BSA, 3 mM TCEP) was prepared fresh for each experiment. A 3× stock solution of each compound (60 μM, 3% DMSO final/1× AlphaScreen buffer) and a series of 2-fold serial dilutions, in 3% DMSO/1× AlphaScreen buffer, were prepared fresh for each experiment. A solution of 750 nM His6-CRBN/DDB1, 375 nM GST-BRD4/1× AlphaScreen buffer (5 μL) was added to each well of a 384-well Optiplate. Then, compound (5 μL) was added, with each concentration assayed in triplicate. As a positive control, 10 μL 100 nM GST-His6 was added to three wells. The plate was sealed with TopSeal A, centrifuged (200× g, 25° C., 1 min), and incubated at 25° C. for 1 h. Under low light, the seal was removed and 5 μL of 60 μg/mL AlphaScreen Glutathione Donor beads, 60 μg/mL AlphaLISA Nickel Chelate […] beads/1× AlphaScreen buffer was added to each well. The plate was sealed with TopSeal A, centrifuged (200× g, 25° C., 1 min), and incubated at 25° C. for 1 h. The seal was removed and the plate was analyzed. Prior to analysis, the plate reader was calibrated with a plate containing 15 μL of 20 μg/mL Omnibeads/1× AlphaScreen buffer in the corner wells. Analysis was performed in Graphpad Prism, using the vehicle-treated wells as the baseline, fitting the signal from each compound to a Gaussian curve, and calculating the area under the curve (AUC)."}, "IKZF1 [6]": {"tested_on": "IKZF1", "assay": "Western blot of IKZF1 levels in MM.1S cells", "type": "cell-based", "conditions": "10 μM", "experimental": "As needed, a BCA assay was performed to determine the protein concentration of lysates and the concentration was adjusted using lysis buffer. 5× SDS-PAGE loading buffer (5% (v/v) β-mercaptoethanol, 0.02% (w/v) bromophenol blue, 30% (v/v) glycerol, 10% (w/v) SDS/250 mM Tris pH 6.8) was added to the protein samples to a final concentration of 1× and the samples were heated at 95° C. for 5 min. […] Gels were transferred to membranes using the Invitrogen iBlot 2 dry blotting system and iBlot 2 nitrocellulose transfer stacks, using program PO (1 min at 20 V, 4 min at 23 V, 2 min at 25 V) for most proteins and 8 min at 25 V for high molecular weight proteins. Membranes were stained with Ponceau S solution to visualize transfer and protein loading. […] Membranes were washed (3×5 min) with TBST and incubated with secondary antibodies at 24° C. for 1 h. Membranes were washed (3×5 min) with TBST and the results were obtained by chemiluminescence and/or IR imaging using Azure 600 or c600."}, "BRD4 with FLAG-CRBN [7]": {"target": "T1, BRD4 with FLAG-CRBN", "assay": "In vivo FLAG-tag co-immunoprecipitation in HEK-CRBN cells", "type": "cell-based", "conditions": "25 μM, 2 h, 1 μM MLN4924", "experimental": "For in vivo FLAG-tag co-immunoprecipitation, 5.0×10^6 HEK-CRBN cells were seeded and incubated at 37° C., 5% CO2 for 30 min, and then were treated with 1 μM MLN4924 for 1 h. […] The cells were collected and lysed in 1× protease/phosphatase inhibitor/1× non-denaturing lysis buffer (500 μL) and clarified by centrifugation (21,000×g, 4° C., 10 min). The soluble portion of the lysate was collected and 200 μL of lysate was incubated with of protein G magnetic beads for 20 min (20 μL) to minimize the non-specific binding. […] The magnetic beads were washed with 1× non-denaturing lysis buffer (5×500 μL). Then, the enriched proteins were eluted by addition of 40 μL of 2× SDS-PAGE loading buffer and heated at 95 °C for 5 min prior to Western blot analysis."}, "[8]": {"conditions": "read-out: KD [ternary] (nM) | BD2"}, "[9]": {"conditions": "read-out: KD [ternary] (nM) | BD1"}}, "note": "Read-outs that look alike come from different tables or passages of the source. No end group written: not given here.", "data": [{"molecule": "Cc1sc2c(c1C)C(c1ccc(Cl)cc1)=N[C@@H](CC(=O)NCCCCCCCCC(=O)N[C@H]1CC(=O)NC1=O)c1nnc(C)n1-2", "note": "[JQ1-cN]", "values": [{"measurement": "Kd", "setting": "[1]", "result": 390, "unit": "nM"}, {"measurement": "Kd", "setting": "[2]", "result": 538, "unit": "nM"}]}, {"molecule": "Cc1sc2c(c1C)C(c1ccc(Cl)cc1)=N[C@@H](CC(=O)NCCCCCCCCC(=O)N[C@@H](Cc1ccc(O)cc1)C(=O)N[C@H]1CCC(=O)NC1=O)c1nnc(C)n1-2", "note": "[JQ1-YcQ]", "values": [{"measurement": "Kd", "setting": "[1]; [8]", "result": 277, "unit": "nM"}, {"measurement": "Kd", "setting": "[2]; [9]", "result": 5, "unit": "nM"}]}, {"molecule": "CC(C)(C)OC(=O)NC(Cc1ccccc1)C(=O)NC1CCC(=O)NC1=O", "note": "(centres unmarked) [Boc-FcQ]", "values": [{"measurement": "additional substrates degraded (global proteomics)", "setting": "IKZF1 [3]", "result": "no additional substrates were degraded"}, {"measurement": "degradation of IKZF1 (global proteomics)", "setting": "IKZF1 [3]", "result": "not susceptible to degradation"}, {"measurement": "Papp (B-A) (10^-6, cm/s)", "setting": "FIG. 22C", "result": "18.00 10^-6, cm/s"}, {"measurement": "Recovery (%)BL-AP", "setting": "FIG. 22C", "result": 91.46, "unit": "%"}, {"measurement": "IC50", "setting": "MM.1S cells", "result": "> 100000", "unit": "nM"}]}, {"molecule": "Nc1cccc2c1CN(C1CCC(=O)NC1=O)C2=O", "note": "(centres unmarked) [lenalidomide, Lenalidomide, reference compound]", "values": [{"measurement": "IC50", "setting": "MM.1S cells", "result": 31600, "unit": "nM"}]}, {"molecule": "Cc1sc2c(c1C)C(c1ccc(Cl)cc1)=N[C@@H](CC(=O)NCCCCCCCCC(=O)N[C@@H](C)C(=O)N[C@H]1CCC(=O)NC1=O)c1nnc(C)n1-2", "note": "[JQ1-AcQ]", "values": [{"measurement": "Kd", "setting": "[1]; [8]", "result": 76, "unit": "nM"}]}, {"molecule": "Cc1sc2c(c1C)C(c1ccc(Cl)cc1)=N[C@@H](CC(=O)NCCCCCCCCC(=O)N[C@@H](CCC(=O)O)C(=O)N[C@H]1CCC(=O)NC1=O)c1nnc(C)n1-2", "note": "[JQ1-EcQ]", "values": [{"measurement": "co-immunoprecipitation of BRD4 with FLAG-CRBN in lysates", "setting": "BRD4 with FLAG-CRBN [4]", "result": "equivalent co-immunoprecipitation of BRD4 with FLAG-CRBN"}]}, {"molecule": "GFP-FQ: \"GFPs tagged with uncyclized glutamine and asparagine, GFP-FQ and GFP-FN\" (TGGSLPETFQ; not fully specified (N-terminus))", "values": [{"measurement": "in vitro ubiquitylation of tagged GFP by CRL4^CRBN complex", "setting": "CRL4^CRBN complex", "result": "no modification"}]}, {"molecule": "Cc1sc2c(c1C)C(c1ccc(Cl)cc1)=N[C@@H](CC(=O)NCCCCCCCCC(=O)N[C@@H](CC(=O)O)C(=O)N[C@H]1CCC(=O)NC1=O)c1nnc(C)n1-2", "note": "[JQ1-DcQ]", "values": [{"measurement": "co-immunoprecipitation of BRD4 with FLAG-CRBN in lysates", "setting": "BRD4 with FLAG-CRBN [4]", "result": "equivalent co-immunoprecipitation of BRD4 with FLAG-CRBN"}]}, {"molecule": "GFP-FN: \"GFPs tagged with uncyclized glutamine and asparagine, GFP-FQ and GFP-FN\" (TGGSLPETFN; not fully specified (N-terminus))", "values": [{"measurement": "in vitro ubiquitylation of tagged GFP by CRL4^CRBN complex", "setting": "CRL4^CRBN complex", "result": "no modification"}]}, {"molecule": "Cc1sc2c(c1C)C(c1ccc(Cl)cc1)=N[C@@H](CC(=O)NCCCCCCCCC(=O)N[C@H]1CCC(=O)NC1=O)c1nnc(C)n1-2", "note": "[JQ1-cQ]", "values": [{"measurement": "Kd", "setting": "[1]", "result": 267, "unit": "nM"}, {"measurement": "degradation of BRD4 (functional degrader or not)", "setting": "BRD4", "result": "inactive"}, {"measurement": "ternary complex formation (AlphaScreen signal / relative area under the curve normalized to dBET6)", "setting": "[5]", "result": "ternary complex formation equivalent to the active JQ1-GcQ"}, {"measurement": "Kd", "setting": "[2]", "result": 245, "unit": "nM"}]}, {"molecule": "Nc1cccc2c1C(=O)N(C1CCC(=O)NC1=O)C2=O", "note": "(centres unmarked) [pomalidomide, Pomalidomide, reference compound]", "values": [{"measurement": "degradation of IKZF1 (Western blot)", "setting": "IKZF1 [6]", "result": "degraded"}, {"measurement": "degradation of IKZF1 (global proteomics)", "setting": "IKZF1 [3]", "result": "selective degradation of the substrate IKZF1"}]}, {"molecule": "Cc1sc2c(c1C)C(c1ccc(Cl)cc1)=N[C@@H](CC(=O)NCCCCCCCCC(=O)N1CCC[C@H]1C(=O)N[C@H]1CCC(=O)NC1=O)c1nnc(C)n1-2", "note": "[JQ1-PcQ]", "values": [{"measurement": "Kd", "setting": "[1]; [8]", "result": 335, "unit": "nM"}, {"measurement": "Kd", "setting": "[2]; [9]", "result": 381, "unit": "nM"}]}, {"molecule": "Nc1cccc2c1CN(C1CCC(=O)NC1=O)C2=O", "note": "(centres unmarked) [lenalidomide, Lenalidomide]", "values": [{"measurement": "Papp (A-B) (10^-6, cm/s)", "setting": "FIG. 22C", "result": "1.22 10^-6, cm/s"}, {"measurement": "Papp (B-A) (10^-6, cm/s)", "setting": "FIG. 22C", "result": "4.41 10^-6, cm/s"}]}, {"molecule": "Cc1sc2c(c1C)C(c1ccc(Cl)cc1)=N[C@@H](CC(=O)NCCCCCCCCC(=O)N[C@@H](Cc1ccccc1)C(=O)N[C@H]1CC(=O)NC1=O)c1nnc(C)n1-2", "note": "[JQ1-FcN]", "values": [{"measurement": "co-immunoprecipitation of BRD4 by FLAG-CRBN in cells", "setting": "BRD4 with FLAG-CRBN [7]", "result": "readily co-immunoprecipitated"}, {"measurement": "ternary complex formation (AlphaScreen signal / relative area under the curve normalized to dBET6)", "setting": "[5]", "result": "stronger ternary complex than dBET6"}]}, {"molecule": "Cc1sc2c(c1C)C(c1ccc(Cl)cc1)=N[C@@H](CC(=O)NCCCCCCCCC(=O)N[C@@H](Cc1ccccc1)C(=O)N[C@H]1CCC(=O)NC1=O)c1nnc(C)n1-2", "note": "[JQ1-FcQ]", "values": [{"measurement": "co-immunoprecipitation of BRD4 by FLAG-CRBN in cells", "setting": "BRD4 with FLAG-CRBN [7]", "result": "readily co-immunoprecipitated"}, {"measurement": "ternary complex formation (AlphaScreen signal / relative area under the curve normalized to dBET6)", "setting": "[5]", "result": "stronger ternary complex than dBET6"}]}]}
